# Data reported in patent US12590127B2, “Split photoactive yellow protein complementation system and uses thereof” (PARIS SCIENCES ET LETTRES, priority 2019, dated 2026).
# B1: iFAST: FAST variant with isoleucine at position 107 (SEQ ID NO: 16); its Nter fragment is SEQ ID NO: 30 (protein)
# chain: MEHVAFGSEDIENTLAKMDDGQLDGLAFGAIQLDGDGNILQYNAAEGDITGRDPKQVIGKNFFKDVAPGTDSPEFYGKFKEGVASGNLNTMFEWMIPTSRGPTKVKIHMKKALSGDSYWVFVKRV
# modifications: functional PYP
# Tests used:
# [1] = target: T1, NFAST (Halorhodospira halophila, UniProt P16113, C69G/D97P/F96I/M100R/Q99S/T101G/T95M/Y94W/Y98T); experiment: Thermodynamic dissociation constants of NFAST:CFASTn couples in the presence of fluorogen (plate reader, one-site specific binding fit); details: synthetic CFASTn peptide and purified NFAST
# T1 construct: His tag (N); made in house; host or cells: Rosetta (DE3) pLysS E. coli
# T1 sequence (P16113 1-114 C69G/Y94W/T95M/F96I/D97P/Y98T/Q99S/M100R/T101G): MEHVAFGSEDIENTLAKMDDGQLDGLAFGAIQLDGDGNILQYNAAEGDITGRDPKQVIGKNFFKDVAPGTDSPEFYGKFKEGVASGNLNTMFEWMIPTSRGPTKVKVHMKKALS
# Protocol: In one embodiment, the thermodynamic dissociation constant KD is determined by spectrofluorometric titration as described in the Examples.
# Expression vectors were transformed in Rosetta (DE3) pLysS E. coli (NEW ENGLAND BIOLABS®). Cells were grown at 37° C. in LB medium complemented with 50 μg/mL kanamycin and 34 μg/mL chloramphenicol to OD600 nm 0.6. Expression was induced for 4 hours by adding isopropyl β-D-1-thiogalactopyranoside (IPTG) to a final concentration of 1 mM. Cells were harvested by centrifugation (4,000×g for 20 min at 4° C.) and frozen. The cell pellet was resuspended in lysis buffer (phosphate buffer 50 mM, NaCl 150 mM, MgCl2 2.5 mM, protease inhibitor, DNase, pH 7.4) and sonicated (5 min at 20% of amplitude, 3 sec on, 1 sec off). The lysate was incubated for 2 hours at 4° C. to allow DNA digestion by DNase. Cellular fragments were removed by centrifugation (9200×g for 1 hour at 4° C.). The supernatant was incubated overnight at 4° C. under gentle agitation with Ni-NTA agarose beads in phosphate buffered saline (PBS) (sodium phosphate 50 mM, NaCl 150 mM, pH 7.4) complemented with 10 mM imidazole. Beads were washed with 20 volumes of PBS containing 20 mM imidazole, and with 5 volumes of PBS complemented with 40 mM imidazole. His-tagged proteins were eluted with 5 volumes of PBS complemented with 0.5 M imidazole. The buffer was exchanged to PBS (50 mM phosphate, 150 mM NaCl, pH 7.4) using PD-10 desalting columns.
# Thermodynamic dissociation constants for NFAST:CFASTn (n=8 to 11) couples were determined using peptides synthesized for CFASTn (n=8 to 11) and recombinantly purified NFAST. The affinity for NFAST:CFAST11 in the presence of 10 μM HMBR was determined independently from a minimum of three different purifications of NFAST. NFAST:CFAST11 was then run in parallel as an internal control for the determination of the other NFAST-CFAST combinations, which were all performed on the same day with the same preparation of NFAST. Thermodynamic dissociation constants were determined with a Spark 10M plate reader (TECAN®) and fit in Prism 6 to a one-site specific binding model.
# [2] = test system: HEK 293T cells; experiment: Relative in-cell brightness of split-FAST after rapamycin-induced FRB-FKBP complementation; assay type: cell-based, human; details: FIG. 4; for relative in-cell brightness (fluorescence observed) by C-terminal fragment: FRB-NFAST + FKBP-CFASTn, any of HMBR, HBR-3,5DM, HBR-30M, HBR-3,5DOM
# Description: FIGS. 4A-4D are a set of histograms showing the relative in-cell brightness of various split-FAST with different fluorogenic HBR analogs as indicated (4A: HMBR, 4B: HBR-3,5DM, 4C: HBR-30M, and 4D: HBR-3,5DOM) in function of the C-terminal fragment CFASTn (n=11, 10 or 9) and the N-terminal fragment used. The iFAST label indicates when NFAST from iFAST (i.e., the first PYP fragment according to the invention consisting of the amino acid sequence NFAST with an isoleucine at position 107 instead of a valine as set forth in SEQ ID NO: 30) was used. If absent, NFAST from FAST was used (i.e., the first PYP fragment according to the invention consisting of the amino acid sequence as set forth in SEQ ID NO: 23). CFAST11, CFAST10 and CFAST9 correspond to the second PYP fragment according to the invention consisting of the amino acid sequence as set forth in SEQ ID NO: 34, SEQ ID NO: 42 and SEQ ID NO: 43, respectively. NFAST fragments were fused to FRB and CFAST fragments were fused to FKBP. Complementation was induced by addition of rapamycin. Split-FAST fluorescence was normalized by expression level using the fluorescence of co-expressed fluorescent proteins.
# HEK 293T cells were seeded in ibidi μDish microscopy dishes and 24 hours prior to imaging were co-transfected with plasmids encoding CMV-FRB-NFAST (or NFAST(V107I))-P2A-mCherry (or EGFP)) and CMV-FKBP-CFASTn (n=11, 10 or 9). The cells were imaged before and after addition of 500 nM rapamycin.
# [3] = test system: HEK293 cells; experiment: Photobleaching / photostability of split-FAST:HMBR in cells by confocal microscopy; assay type: cell-based, human; details: 10 μM HMBR, 488 nm excitation, rapamycin-treated cells, FAST as control, FIG. 5E
# Protocol: FIGS. 5A-5G illustrate the detection of rapamycin-induced FRB-FKBP dimerization with the complementation system of the invention. 5A and 5B show HEK293T cells co-expressing FKBP-NFAST and FRB-CFASTn (n=10 or 11) which were labeled with 5 μM HMBR (5A) or 10 μM HBR-3,5DOM (5B) and imaged before and after addition of 100 nM rapamycin. Scale bars 10 μm. […] Cells expressing FRB-NFAST and FKBP-CFASTn (n=10 or 11) were treated with rapamycin to form split-FAST11 and split-FAST10. Cells expressing FAST were used as control. HMBR concentration was 10 μM. Excitation at 488 nm at 6.3 kW/cm2. Six cells were analyzed per condition. […] Scale bars 20 μm. […] Scale bars 20 μm.
# Photobleaching measurements for HMBR were carried out at 10 μM fluorogen at 488 nm excitation (4.6 kW/cm2, […] pixel dwell); FAST was used as a control. Samples were imaged continuously for 1000 images at a 1 frame per second frequency.
# [4] = KD of NFAST-CFASTn 10 μM HMBR, in the presence of 10 μM HMBR
# [5] = KD of NFAST-CFASTn 10 μM HBR-3,5-DOM, in the presence of 10 μM HBR-3,5-DOM
Molecule,"Kd [1, 4] [µM]",relative in-cell brightness (fluorescence observed) by C-terminal fragment [2],"Kd [1, 5] [µM]",photostability of split-FAST:fluorogen assembly in cells [3],fluorescence of the Nter fragment of iFAST + CFAST compared with NFAST + CFAST ([2]; HEK 293T cells)
Ac-GDSYWVFV-NH2 [CFAST8],21 ± 4,,,,
Ac-GDSYWVFVK-NH2 [CFAST9],5.7 ± 0.06,lowest,25 ± 1,,
Ac-GDSYWVFVKR-NH2 [CFAST10],0.95 ± 0.08,lower,6.2 ± 0.5,as photostable as the regular FAST:fluorogen complex,
Ac-GDSYWVFVKRV-NH2 [CFAST11],0.21 ± 0.05,highest,1.4 ± 0.2,as photostable as the regular FAST:fluorogen complex,
B1,,,,,similar
